What was measured:
[1] = Impact of fragrance ingredients on scalp malodour counteractancy of 80 fragrance compositions (Example 2 protocol, statistical presence); details: series of 80 fragrance compositions
Method: In a second set of experiments, the impact of these fragrance ingredients on the scalp malodour counteractancy of a fragrance composition was assessed. The scalp malodour counteractancy of a series of 80 fragrance compositions was assessed by performing the evaluation protocol described in Example 2. […] Ingredients that were statistically more present in fragrances having a high malodour counteractancy were assigned a positive status, whereas ingredients that were statistically more present in compositions having a low malodour counteractancy were assigned a negative status.

[2] = Gas-phase evaluation of each fragrance ingredient alone against model scalp malodour, MiniVAS device, panel of 5 experts; details: for Scalp MOC of ingredient alone: expert description
Method: In a first set of experiments, the scalp malodour counteractancy of 173 fragrance ingredients was evaluated by panel of 5 experts.
The evaluation was performed in the gas phase, using a MiniVAS™ device (ex Givaudan SA). This device is a regulating means that comprises a plurality of channels adapted to convey a gas (more particularly air) through cartridges, each cartridge containing a fragrance ingredient adsorbed onto an adsorbent. The air flows coming from the different cartridges are admixed and conveyed to the user's nose through a tubing fitted with an olfactometer funnel. Thus, by opening and closing channels and maintaining these opened and closed, respectively, for predetermined times, the regulating means can determine which fragrance ingredients and how much thereof are conveyed and when, and thus alter the nature of the fragrance perceived by the user. A description of the device can be found in WO2014154909A1, page 2, line 11 to page 4, line 7, and in H. R. Gygax et al. “Evolution of Real Time Aroma Creation at Givaudan”, poster presented at the 12th Weurman Flavour Research Symposium. July 2008. Interlaken, Switzerland; DOI: 10.13140/2.1.1924.0641.
For the sake of the present evaluation, one cartridge contained the scalp malodour (in the form of a model malodour) and each fragrance ingredient was assigned to another cartridge. The malodour counteractancy of each fragrance ingredient was evaluated separately against the scalp malodour. A constant air flow rate of 50 ml/min was used for all measurements. The perceived malodour intensity, as well as the fragrance intensity, were ranked on a scale of 1-5 (1=barely noticeable, 2=weak, 3=medium, 4=strong and 5=very strong).

[3] = Table 4, air flow 50 ml/min, scale of 1-5
[4] = Table 3, air flow 50 ml/min, scale of 1-5 (1=barely noticeable, 5=very strong)

## C=CCc1ccc(OC(C)=O)c(OC)c1 [4-allyl-2-methoxyphenyl acetate]
[1]; Table 4
  Impact on scalp MOC of fragrance composition: Negative
[2]; [3]
  MO intensity: 1

## COc1cc(C=O)ccc1OC(=O)C(C)C [4-formyl-2-methoxyphenyl 2-methylpropanoate]
[1]; Table 3
  Impact on scalp MOC of fragrance composition: Positive
[2]; [4]
  MO intensity: 1.5

## COc1ccc(C=O)cc1 [4-methoxybenzaldehyde]
[1]; Table 3
  Impact on scalp MOC of fragrance composition: Positive
[2]; [4]
  MO intensity: 3

## CCCCC1CCC(=O)O1 (stereo not shown) [5-butyloxolan-2-one]
[1]; Table 4
  Impact on scalp MOC of fragrance composition: Negative
[2]; [3]
  MO intensity: 3.8

## CCCCCCC1CCC(=O)O1 (stereo not shown) [5-hexyloxolan-2-one]
[1]; Table 3
  Impact on scalp MOC of fragrance composition: Positive
[2]; [4]
  MO intensity: 3

## CCCC1(C(C)(C)C)C=CC(C)O1 (stereo not shown) [5-tert-butyl-2-methyl-5-propyl-2H-furan]
[1]; Table 3
  Impact on scalp MOC of fragrance composition: Positive
[2]; [4]
  MO intensity: 4

## CCCCCCCC1CCCC(=O)O1 (stereo not shown) [6-heptyltetrahydro-2H-pyran-2-one]
[1]; Table 3
  Impact on scalp MOC of fragrance composition: Positive
[2]; [4]
  MO intensity: 3

## CCC(C)(CCCC(C)C=O)OC (stereo not shown) [6-methoxy-2,6-dimethyloctanal]
[1]; Table 3
  Impact on scalp MOC of fragrance composition: Positive
[2]; [4]
  MO intensity: 3

## CCCC1CCCC(=O)O1 (stereo not shown) [6-propyltetrahydro-2H-pyran-2-one]
[1]; Table 4
  Impact on scalp MOC of fragrance composition: Negative
[2]; [3]
  MO intensity: 3.8

## CC(CC=O)CCCC(C)(C)O (stereo not shown) [7-hydroxy-3,7-dimethyloctanal]
[1]; Table 3
  Impact on scalp MOC of fragrance composition: Positive
[2]; [4]
  MO intensity: 2

## CC(C)CCc1ccc2c(c1)OCC(=O)CO2 [7-isopentyl-2H-benzo[b][1,4]dioxepin-3(4H)-one]
[1]; Table 3
  Impact on scalp MOC of fragrance composition: Positive
[2]; [4]
  MO intensity: 4.5

## Cc1ccc2c(c1)OCC(=O)CO2 [8-methyl-1,5-benzodioxepin-3-one]
[1]; Table 3
  Impact on scalp MOC of fragrance composition: Positive
[2]; [4]
  MO intensity: 3.5

## CC1CCC2(CCC(=O)O2)CC1 (stereo not shown) [8-methyl-1-oxaspiro[4.5]decan-2-one]
[1]; Table 3
  Impact on scalp MOC of fragrance composition: Positive
[2]; [4]
  MO intensity: 2.7

## CC1(C)[C@H]2CC[C@]1(C)C(=O)C2 [(1S,4S)-1,7,7-trimethylbicyclo[2.2.1]heptan-2-one]
[1]; Table 3
  Impact on scalp MOC of fragrance composition: Positive
[2]; [4]
  MO intensity: 4.5

## CC(=O)O[C@]1(C)CC[C@]23CC1C(C)(C)C2CC[C@@H]3C (stereo partly drawn) [(1S,6R,8aR)-1,4,4,6-tetramethyloctahydro-1H-5,8a-methanoazulen-6-yl acetate]
[1]; Table 3
  Impact on scalp MOC of fragrance composition: Positive
[2]; [4]
  MO intensity: 1
[2]; Table 3, gas phase
  Scalp MOC of ingredient alone: No effect

## OCC1COC(Cc2ccccc2)O1 (stereo not shown) [(2-benzyl-1,3-dioxolan-4-yl)methanol]
[1]; Table 4
  Impact on scalp MOC of fragrance composition: Negative
[2]; [3]
  MO intensity: 1

## CCCCC/C=C\C=C\C(=O)OCC [(2E,4Z)-ethyl deca-2,4-dienoate]
[1]; Table 4
  Impact on scalp MOC of fragrance composition: Negative
[2]; [3]
  MO intensity: 1

## C/C=C/C(=O)/C(C)=C(\C)C(C)C [(2E,5E)-5,6,7-trimethylocta-2,5-dien-4-one]
[1]; Table 3
  Impact on scalp MOC of fragrance composition: Positive
[2]; [4]
  MO intensity: 1.5

## CC1=CC[C@H]2C(C1)C1CC2[C@@]2(C1)OC2C (stereo partly drawn) [(2R,8aS)-3′,6-dimethyl-3,4,4a,5,8,8a-hexahydro-1H-spiro[1,4-methanonaphthalene-2,2′-oxirane]]
[1]; Table 3
  Impact on scalp MOC of fragrance composition: Positive
[2]; [4]
  MO intensity: 1
[2]; Table 3, gas phase
  Scalp MOC of ingredient alone: No effect

## CC1(C)CCC[C@]2(C)[C@H]3CCO[C@]3(C)CC[C@@H]12 [(3aR,5aS,9aS,9bR)-3a,6,6,9a-tetramethyl-2,4,5,5a,7,8,9,9b-octahydro-1H-benzo[e][1]benzofuran]
[1]; Table 3
  Impact on scalp MOC of fragrance composition: Positive
[2]; [4]
  MO intensity: 1
[2]; Table 3, gas phase
  Scalp MOC of ingredient alone: No effect

## CC(=O)O[C@H]1CC2CC1[C@H]1CC=C[C@@H]21 (stereo partly drawn) [(3aR,6S,7aS)-3a,4,5,6,7,7a-hexahydro-1H-4,7-methanoinden-6-yl acetate]
[1]; Table 4
  Impact on scalp MOC of fragrance composition: Negative
[2]; [3]
  MO intensity: 3.8

## CCC(=O)O[C@H]1CC2CC1[C@H]1CC=C[C@@H]21 (stereo partly drawn) [(3aR,6S,7aS)-3a,4,5,6,7,7a-hexahydro-1H-4,7-methanoinden-6-yl propanoate]
[1]; Table 4
  Impact on scalp MOC of fragrance composition: Negative
[2]; [3]
  MO intensity: 1.3

## CC(C)C1CCC(CO)CC1 (stereo not shown) [(4-isopropylcyclohexyl)methanol]
[1]; Table 3
  Impact on scalp MOC of fragrance composition: Positive
[2]; [4]
  MO intensity: 3

## CC(C)c1ccc(CO)cc1 [(4-isopropylphenyl)methanol]
[1]; Table 3
  Impact on scalp MOC of fragrance composition: Positive
[2]; [4]
  MO intensity: 2

## C/C(=C\CCC=O)CCCC(C)(C)O [(4E)-9-hydroxy-5,9-dimethyl-4-decenal]
[1]; Table 3
  Impact on scalp MOC of fragrance composition: Positive
[2]; [4]
  MO intensity: 1
[2]; Table 3, gas phase
  Scalp MOC of ingredient alone: No effect

## C[C@@H]1CC[C@H]2C(C)(C)[C@H]3C[C@@]12CC1OC(C)(C)OC13C (stereo partly drawn) [(4aR,5R,7aS,9R)-Octahydro-2,2,5,8,8,9a-hexamethyl-4H-4a,9-methanoazuleno[5,6-d]-1,3-dioxole]
[1]; Table 3
  Impact on scalp MOC of fragrance composition: Positive
[2]; [4]
  MO intensity: 4

## C=C(C)[C@@H]1CC=C(C)C(=O)C1 [(5R)-2-methyl-5-prop-1-en-2-ylcyclohex-2-en-1-one]
[1]; Table 4
  Impact on scalp MOC of fragrance composition: Negative
[2]; [3]
  MO intensity: 0
[2]; Table 4, gas phase
  Scalp MOC of ingredient alone: Enhances MO

## C/C=C/c1ccc(OC)c(OC)c1 [(E)-1,2-dimethoxy-4-(prop-1-en-1-yl)benzene]
[1]; Table 4
  Impact on scalp MOC of fragrance composition: Negative
[2]; [3]
  MO intensity: 3.3

## C/C=C/C(=O)C1=C(C)CCCC1(C)C [(E)-1-(2,6,6-trimethyl-1-cyclohexenyl)but-2-en-1-one]
[1]; Table 3
  Impact on scalp MOC of fragrance composition: Positive
[2]; [4]
  MO intensity: 2.8
[2]; Table 3, gas phase
  Scalp MOC of ingredient alone: Coverage

## C/C=C/C(=O)C1C(C)=CCCC1(C)C (stereo not shown) [(E)-1-(2,6,6-trimethylcyclohex-2-en-1-yl)but-2-en-1-one]
[1]; Table 3
  Impact on scalp MOC of fragrance composition: Positive
[2]; [4]
  MO intensity: 3.7

## C=CCCC(=O)/C=C/C1C(C)=CCCC1(C)C (stereo not shown) [(E)-1-(2,6,6-trimethylcyclohex-2-en-1-yl)hepta-1,6-dien-3-one]
[1]; Table 4
  Impact on scalp MOC of fragrance composition: Negative
[2]; [3]
  MO intensity: 3
[2]; Table 4, gas phase
  Scalp MOC of ingredient alone: Good coverage

## CCC(=O)/C=C/C1C(C)=CCCC1(C)C (stereo not shown) [(E)-1-(2,6,6-trimethylcyclohex-2-en-1-yl)pent-1-en-3-one]
[1]; Table 3
  Impact on scalp MOC of fragrance composition: Positive
[2]; [4]
  MO intensity: 3

## C/C=C/C(=O)C1=C(C)C=CCC1(C)C [(E)-1-(2,6,6-trimethylcyclohexa-1,3-dien-1-yl)but-2-en-1-one]
[1]; Table 3
  Impact on scalp MOC of fragrance composition: Positive
[2]; [4]
  MO intensity: 2.8

## C/C=C/c1ccc(OC)cc1 [(E)-1-methoxy-4-(prop-1-en-1-yl)benzene]
[1]; Table 3
  Impact on scalp MOC of fragrance composition: Positive
[2]; [4]
  MO intensity: 4

## C/C(=C\C(C)C)C(C)OC(C)(C)COC(=O)C1CC1 (stereo not shown) [(E)-2-((3,5-dimethylhex-3-en-2-yl)oxy)-2-methylpropyl cyclopropanecarboxylate]
[1]; Table 4
  Impact on scalp MOC of fragrance composition: Negative
[2]; [3]
  MO intensity: 1

## CCCCCC/C(C=O)=C\c1ccccc1 [(E)-2-benzylideneoctanal]
[1]; Table 4
  Impact on scalp MOC of fragrance composition: Negative
[2]; [3]
  MO intensity: 1.2

## C/C=C/c1ccc(O)c(OC)c1 [(E)-2-methoxy-4-(prop-1-en-1-yl)phenol]
[1]; Table 3
  Impact on scalp MOC of fragrance composition: Positive
[2]; [4]
  MO intensity: 4.5

## C=CC(C)(O)CC/C=C(\C)CCC=C(C)C (stereo not shown) [(E)-3,7,11-trimethyldodeca-1,6,10-trien-3-ol]
[1]; Table 3
  Impact on scalp MOC of fragrance composition: Positive
[2]; [4]
  MO intensity: 1
[2]; Table 3, gas phase
  Scalp MOC of ingredient alone: No effect

## CC(=O)/C(C)=C/C1=C(C)CCCC1(C)C [(E)-3-methyl-4-(2,6,6-trimethylcyclohex-1-en-1-yl)but-3-en-2-one]
[1]; Table 3
  Impact on scalp MOC of fragrance composition: Positive
[2]; [4]
  MO intensity: 3

## CC(=O)/C(C)=C/C1C(C)=CCCC1(C)C (stereo not shown) [(E)-3-methyl-4-(2,6,6-trimethylcyclohex-2-en-1-yl)but-3-en-2-one]
[1]; Table 3
  Impact on scalp MOC of fragrance composition: Positive
[2]; [4]
  MO intensity: 3

## CC1=CCC(/C=C/C(C)C(C)O)C1(C)C (stereo not shown) [(E)-3-methyl-5-(2,2,3-trimethylcyclopent-3-en-1-yl)pent-4-en-2-ol]
[1]; Table 3
  Impact on scalp MOC of fragrance composition: Positive
[2]; [4]
  MO intensity: 4.3

## CC(=O)/C=C/C1C(C)=CCCC1(C)C (stereo not shown) [(E)-4-(2,6,6-trimethyl-1-cyclohex-2-enyl)but-3-en-2-one]
[1]; Table 4
  Impact on scalp MOC of fragrance composition: Negative
[2]; [3]
  MO intensity: 4.5

## CC(=O)/C=C/C1=C(C)CCCC1(C)C [(E)-4-(2,6,6-trimethylcyclohex-1-en-1-yl)but-3-en-2-one]
[1]; Table 4
  Impact on scalp MOC of fragrance composition: Negative
[2]; [3]
  MO intensity: 1

From patent US20260272797A1, “FRAGRANCE COMPOSITION” (GIVAUDAN SA, priority 2023, published 2026)
